Results from ChEMBL document CHEMBL1201862, “PubChem BioAssay data set” (2004).
Active and inactive are the calls of the source.

Tests used:
[1] = target: UDP-galactopyranose mutase (Mycobacterium tuberculosis, UniProt P9WIQ1); assay: Inhibitors of Mycobacterium tuberculosis UDP-galactopyranose mutase (UGM) enzyme Measured in Biochemical System Using Plate Reader - 2105-02_Inhibitor_Dose_CherryPick_Activity. [Related pubchem assays (depositor defined):AID504439]
[2] = target: T1, Kappa-type opioid receptor (Homo sapiens, UniProt P41145); format: functional
[3] = target: T1, Kappa-type opioid receptor; format: functional; remark: listed apart in the source
Beta-galactosidase = Beta-galactosidase (Escherichia coli, UniProt Q8VNN2); format: functional
[4] = target: T2, Delta-type opioid receptor (Homo sapiens, UniProt P41143); assay: HTS Image-Based Screen for Antagonists of the DOR Receptor. [Related pubchem assays (depositor defined):AID1777, AID1785, AID1786, AID2133]; format: functional
Mu-type opioid receptor [5] = target: T3, Mu-type opioid receptor (Homo sapiens, UniProt P35372); assay: HTS Image-Based Screen for Agonists of the MOR Receptor. [Related pubchem assays (depositor defined):AID1777, AID1785, AID1786, AID2133]; format: functional
[6] = target: T2, Delta-type opioid receptor; assay: HTS Image-Based Screen for Agonists of the DOR Receptor. [Related pubchem assays (depositor defined):AID1777, AID1786, AID2133]; format: functional
[7] = target: T2, Delta-type opioid receptor; assay: SAR Analysis of Agonists of the DOR Receptor using an Image-Based Assay - Set 2. [Related pubchem assays (depositor defined):AID1777, AID1785, AID1786, AID1966, AID2133, AID2136, AID2284, AID2285, AID2370]; format: functional
Mu-type opioid receptor [8] = target: T3, Mu-type opioid receptor; assay: SAR Analysis of Agonists of the MOR Receptor using an Image-Based Assay - Set 2. [Related pubchem assays (depositor defined):AID1777, AID1785, AID1786, AID1966, AID2133, AID2136, AID2284, AID2285, AID2352]; format: functional
Mu-type opioid receptor [9] = target: T3, Mu-type opioid receptor; assay: SAR Analysis of Antagonists of the MOR Receptor using an Image-Based Assay - Set 2. [Related pubchem assays (depositor defined):AID1777, AID1785, AID1786, AID1966, AID2133, AID2136, AID2284, AID2285, AID2420]; format: functional
[10] = target: T2, Delta-type opioid receptor; assay: SAR Analysis of Antagonists of the DOR Receptor using an Image-Based Assay - Set 2. [Related pubchem assays (depositor defined):AID1777, AID1785, AID1786, AID1966, AID2133, AID2136, AID2284, AID2285, AID2357]; format: functional
Tumor necrosis factor = Tumor necrosis factor (Homo sapiens, UniProt P01375); assay: analog potency on TNFa NF-kB signaling – cell-based, revised, SAR follow-up (AID 2337); format: functional
HEK293 [11] = assay: cells; format: functional, cell-based; conditions: Homo sapiens
HEK293 [12] = assay: cells; format: functional, cell-based; conditions: Homo sapiens; remark: listed apart in the source
[13] = target: Nucleotide-binding oligomerization domain-containing protein 2 (Homo sapiens, UniProt Q9HC29); assay: inhibition of NOD2-driven NF-kB reporter – cell-based, luminescence, uHTS, HEK293 (AID 1566); format: functional
HEK293 [14] = assay: NOD2 signaling inhibitors in MDP-stimulated cells, cell-based, uHTS, luminescence (AID 2001); format: functional; conditions: Homo sapiens
HEK293 [15] = assay: inhibition of NOD1-driven NF-kB reporter – cell-based, luminescence, uHTS, primary screen (AID 1578); format: functional; conditions: Homo sapiens
HEK293 [16] = assay: cells; format: functional, cell-based; conditions: Homo sapiens; remark: listed apart in the source
HEK293 [17] = assay: cells; conditions: Homo sapiens
[18] = target: Nucleotide-binding oligomerization domain-containing protein 1 (Homo sapiens, UniProt Q9Y239); assay: blockers of NOD1 pathway activity – revised, SAR follow-up (AID 2333); format: functional
[19] = target: T4, Intestinal-type alkaline phosphatase (Homo sapiens, UniProt P09923); assay: human intestinal alkaline phosphatase activators, dose response, biochemical, luminescence, uHTS hits (AID 463120); format: functional
[20] = target: Intestinal-type alkaline phosphatase (Mus musculus, UniProt P24822); assay: PubChem AID 488874; format: functional
[21] = target: T4, Intestinal-type alkaline phosphatase; assay: activation of human intestinal alkaline phosphatase – biochemical, luminescent, uHTS hits, set 2, dose response (AID 488817); format: functional;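 also: potency of activators that raise enzyme activity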
[22] = target: T5, Alkaline phosphatase, tissue-nonspecific isozyme (Homo sapiens, UniProt P05186); assay: activation of tissue-nonspecific alkaline phosphatase – biochemical, TNAP isozyme, human IAP uHTS hits, selectivity assay for human IAP activator project, dose response (AID 488886); format: functional;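 also: potency of compounds raising TNAP activity as a selectivity check on IAP activators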
T5 sequence (P05186 whole entry): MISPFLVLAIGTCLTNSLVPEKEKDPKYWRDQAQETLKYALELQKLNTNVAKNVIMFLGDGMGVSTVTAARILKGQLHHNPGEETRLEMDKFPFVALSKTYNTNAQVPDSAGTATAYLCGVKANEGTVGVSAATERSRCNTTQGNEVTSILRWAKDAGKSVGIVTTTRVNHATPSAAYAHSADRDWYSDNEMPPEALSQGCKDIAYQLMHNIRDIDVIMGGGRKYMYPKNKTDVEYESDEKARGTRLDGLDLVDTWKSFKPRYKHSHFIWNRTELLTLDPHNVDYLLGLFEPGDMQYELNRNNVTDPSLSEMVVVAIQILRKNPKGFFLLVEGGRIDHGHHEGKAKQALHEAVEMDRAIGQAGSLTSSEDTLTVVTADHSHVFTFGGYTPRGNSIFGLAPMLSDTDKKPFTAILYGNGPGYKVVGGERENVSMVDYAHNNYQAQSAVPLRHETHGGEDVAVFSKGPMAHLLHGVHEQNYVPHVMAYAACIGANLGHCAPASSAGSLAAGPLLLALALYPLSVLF

[23] = viability loss of HMLE_sh_eGFP cells – cell-based, luminescence, counter-screen for HMLE_sh_ECad selective toxicity project, dose response (AID 463074); format: functional, Homo sapiens;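 also: HMLE human mammary epithelial cells expressing control shRNA against eGFP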
[24] = target: T6, Corticotropin-releasing factor receptor 2/Corticotropin-releasing factor-binding protein (Homo sapiens, UniProt P24387+Q13324); assay: activators of CRF receptor 2 with binding protein – uHTS hits, confirmation (AID 602473); format: functional; conditions: read-out: EC50_Mean
T6 sequence (Q13324 whole entry): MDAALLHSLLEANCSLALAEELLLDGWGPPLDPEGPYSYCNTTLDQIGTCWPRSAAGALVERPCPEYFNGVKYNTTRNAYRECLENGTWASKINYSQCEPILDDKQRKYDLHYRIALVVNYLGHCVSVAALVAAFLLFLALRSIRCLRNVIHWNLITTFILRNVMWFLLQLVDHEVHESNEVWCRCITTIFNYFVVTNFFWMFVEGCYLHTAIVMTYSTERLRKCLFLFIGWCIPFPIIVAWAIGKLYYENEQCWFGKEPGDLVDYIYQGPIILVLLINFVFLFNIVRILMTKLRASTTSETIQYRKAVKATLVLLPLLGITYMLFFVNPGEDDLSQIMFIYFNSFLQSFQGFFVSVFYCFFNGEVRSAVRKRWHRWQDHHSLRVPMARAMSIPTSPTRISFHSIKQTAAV
T6 sequence (P24387 whole entry): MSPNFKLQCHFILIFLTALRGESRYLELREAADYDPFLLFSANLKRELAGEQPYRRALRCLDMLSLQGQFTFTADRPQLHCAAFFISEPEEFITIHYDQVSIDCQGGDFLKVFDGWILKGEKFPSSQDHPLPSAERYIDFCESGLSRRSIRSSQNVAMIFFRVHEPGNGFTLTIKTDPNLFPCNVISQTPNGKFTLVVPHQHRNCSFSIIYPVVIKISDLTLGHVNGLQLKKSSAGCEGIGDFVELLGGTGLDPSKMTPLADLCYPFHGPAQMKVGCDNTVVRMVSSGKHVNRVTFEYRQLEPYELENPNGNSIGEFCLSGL

[25] = antiviral protection against BTV-induced cell death – arbovirus, BSR cells, confirmation (AID 1250); format: functional;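 also: protection from viral cytopathic effect measured as cell viability by ATP luminescence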
[26] = target: T6, Corticotropin-releasing factor receptor 2/Corticotropin-releasing factor-binding protein; assay: Dose Response confirmation of uHTS hits for small molecule antagonists of the CRF-binding protein and CRF-R2 receptor complex.; format: functional; conditions: read-out: IC50_Mean
[27] = blockers of CRF-binding protein–CRF-R2 complex – cell-based, uHTS hits, 384-well, dose response (AID 651639); format: functional, Homo sapiens; conditions: read-out: IC50_Mean
[28] = Luminescence Cell-Based Dose Retest to Confirm Inhibitors of Cancer Stem Cells. [Related pubchem assays (depositor defined):AID2717, AID2721]; format: functional; conditions: Homo sapiens
[29] = target: T7, Heat shock factor protein 1 (Mus musculus, UniProt P38532); assay: decrease of HSF1-responsive luciferase luminescence – cell-based, NIH3T3, dose retest, confirmation (AID 2382); format: functional;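 also: NIH3T3 fibroblasts with HSF1-driven luciferase reporter stressed by proteasome inhibitor MG132; luminescence from HSF1-driven luciferase expression after 8 hours of MG132 stress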
T7 sequence (P38532 whole entry): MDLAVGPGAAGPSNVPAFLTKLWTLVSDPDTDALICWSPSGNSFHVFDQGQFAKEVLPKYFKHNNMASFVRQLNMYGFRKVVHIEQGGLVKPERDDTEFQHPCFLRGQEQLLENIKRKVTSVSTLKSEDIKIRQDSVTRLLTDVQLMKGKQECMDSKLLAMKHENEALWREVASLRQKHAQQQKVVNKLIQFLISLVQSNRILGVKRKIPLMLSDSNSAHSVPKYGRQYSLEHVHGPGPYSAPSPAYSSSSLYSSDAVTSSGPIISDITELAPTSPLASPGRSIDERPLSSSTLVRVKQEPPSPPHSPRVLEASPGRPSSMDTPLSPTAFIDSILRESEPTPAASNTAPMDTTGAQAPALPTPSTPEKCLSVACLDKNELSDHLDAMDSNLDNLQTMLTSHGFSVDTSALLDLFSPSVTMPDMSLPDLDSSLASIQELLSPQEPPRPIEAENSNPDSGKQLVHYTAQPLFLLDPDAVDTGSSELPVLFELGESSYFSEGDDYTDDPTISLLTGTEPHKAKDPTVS

T3 sequence (P35372 whole entry): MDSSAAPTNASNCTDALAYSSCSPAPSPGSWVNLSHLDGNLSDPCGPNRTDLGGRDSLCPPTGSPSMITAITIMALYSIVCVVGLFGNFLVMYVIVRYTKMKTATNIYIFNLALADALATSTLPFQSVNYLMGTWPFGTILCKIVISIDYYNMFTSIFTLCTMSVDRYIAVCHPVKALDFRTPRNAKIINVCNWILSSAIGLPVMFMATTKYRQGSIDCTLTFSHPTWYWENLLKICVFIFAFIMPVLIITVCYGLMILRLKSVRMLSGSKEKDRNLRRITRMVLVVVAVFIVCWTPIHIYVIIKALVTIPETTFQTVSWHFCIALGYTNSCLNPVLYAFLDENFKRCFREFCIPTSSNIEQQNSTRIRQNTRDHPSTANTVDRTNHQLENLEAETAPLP
T2 sequence (P41143 whole entry): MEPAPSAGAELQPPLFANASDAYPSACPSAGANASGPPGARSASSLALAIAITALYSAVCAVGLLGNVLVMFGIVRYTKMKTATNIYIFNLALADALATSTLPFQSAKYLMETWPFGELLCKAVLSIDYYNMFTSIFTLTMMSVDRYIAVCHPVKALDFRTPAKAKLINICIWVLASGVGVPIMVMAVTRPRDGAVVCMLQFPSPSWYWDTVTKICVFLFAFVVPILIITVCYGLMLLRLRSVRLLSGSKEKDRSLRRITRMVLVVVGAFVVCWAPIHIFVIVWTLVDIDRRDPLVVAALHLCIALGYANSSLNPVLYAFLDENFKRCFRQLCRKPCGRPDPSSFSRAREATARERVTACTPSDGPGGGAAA
T4 sequence (P09923 whole entry): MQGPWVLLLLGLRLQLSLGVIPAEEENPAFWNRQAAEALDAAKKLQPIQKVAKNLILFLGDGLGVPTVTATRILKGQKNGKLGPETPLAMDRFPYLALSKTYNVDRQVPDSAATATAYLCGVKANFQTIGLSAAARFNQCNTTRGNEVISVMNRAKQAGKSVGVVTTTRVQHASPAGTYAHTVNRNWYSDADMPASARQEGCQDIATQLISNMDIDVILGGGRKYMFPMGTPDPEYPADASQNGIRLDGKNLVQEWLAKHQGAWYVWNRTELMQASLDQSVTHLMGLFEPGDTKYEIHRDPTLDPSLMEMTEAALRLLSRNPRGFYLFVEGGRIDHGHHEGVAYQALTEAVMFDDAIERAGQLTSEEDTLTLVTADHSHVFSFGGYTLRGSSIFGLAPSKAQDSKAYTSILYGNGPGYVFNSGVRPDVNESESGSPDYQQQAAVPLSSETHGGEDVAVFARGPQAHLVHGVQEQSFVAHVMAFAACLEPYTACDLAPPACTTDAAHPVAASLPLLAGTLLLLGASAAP
T1 sequence (P41145 whole entry): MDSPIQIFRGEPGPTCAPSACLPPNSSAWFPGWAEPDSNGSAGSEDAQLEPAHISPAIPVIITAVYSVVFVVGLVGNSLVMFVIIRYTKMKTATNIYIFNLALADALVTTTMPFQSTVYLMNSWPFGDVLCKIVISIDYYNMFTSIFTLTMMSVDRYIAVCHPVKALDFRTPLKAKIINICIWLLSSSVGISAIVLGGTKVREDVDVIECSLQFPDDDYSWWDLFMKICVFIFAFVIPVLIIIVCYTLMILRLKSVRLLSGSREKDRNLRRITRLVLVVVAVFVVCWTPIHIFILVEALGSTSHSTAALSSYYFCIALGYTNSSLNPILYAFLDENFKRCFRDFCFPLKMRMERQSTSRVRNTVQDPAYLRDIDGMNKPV
Chain of Beta-galactosidase (Q8VNN2 whole entry): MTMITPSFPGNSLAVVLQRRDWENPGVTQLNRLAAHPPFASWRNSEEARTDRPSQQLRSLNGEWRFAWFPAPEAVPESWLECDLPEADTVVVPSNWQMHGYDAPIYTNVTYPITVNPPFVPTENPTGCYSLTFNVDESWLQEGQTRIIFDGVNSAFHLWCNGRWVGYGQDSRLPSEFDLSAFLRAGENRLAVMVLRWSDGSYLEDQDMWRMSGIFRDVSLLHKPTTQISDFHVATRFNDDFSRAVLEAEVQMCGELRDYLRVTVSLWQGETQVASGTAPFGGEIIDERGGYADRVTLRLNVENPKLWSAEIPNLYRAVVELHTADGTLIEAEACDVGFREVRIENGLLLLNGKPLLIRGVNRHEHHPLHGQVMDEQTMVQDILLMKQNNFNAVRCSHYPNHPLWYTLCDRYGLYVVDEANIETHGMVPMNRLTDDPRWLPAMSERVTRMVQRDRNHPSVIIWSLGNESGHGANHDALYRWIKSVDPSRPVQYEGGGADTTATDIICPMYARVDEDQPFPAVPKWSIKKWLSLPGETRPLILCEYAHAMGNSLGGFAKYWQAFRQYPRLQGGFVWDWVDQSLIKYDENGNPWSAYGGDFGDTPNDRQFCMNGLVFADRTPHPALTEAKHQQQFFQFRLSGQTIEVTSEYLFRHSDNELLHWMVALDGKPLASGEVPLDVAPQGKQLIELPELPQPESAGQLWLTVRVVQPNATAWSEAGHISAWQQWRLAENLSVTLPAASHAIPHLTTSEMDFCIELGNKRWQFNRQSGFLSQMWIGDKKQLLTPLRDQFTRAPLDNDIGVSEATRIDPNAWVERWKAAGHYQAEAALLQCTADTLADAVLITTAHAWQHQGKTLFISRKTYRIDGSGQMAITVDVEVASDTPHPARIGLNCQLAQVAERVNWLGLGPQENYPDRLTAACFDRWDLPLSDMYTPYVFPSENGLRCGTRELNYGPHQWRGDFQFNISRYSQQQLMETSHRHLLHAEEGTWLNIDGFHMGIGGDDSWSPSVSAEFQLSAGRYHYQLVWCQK
Chain of Nucleotide-binding oligomerization domain-containing protein 2 (Q9HC29 whole entry, the tested form may be a part): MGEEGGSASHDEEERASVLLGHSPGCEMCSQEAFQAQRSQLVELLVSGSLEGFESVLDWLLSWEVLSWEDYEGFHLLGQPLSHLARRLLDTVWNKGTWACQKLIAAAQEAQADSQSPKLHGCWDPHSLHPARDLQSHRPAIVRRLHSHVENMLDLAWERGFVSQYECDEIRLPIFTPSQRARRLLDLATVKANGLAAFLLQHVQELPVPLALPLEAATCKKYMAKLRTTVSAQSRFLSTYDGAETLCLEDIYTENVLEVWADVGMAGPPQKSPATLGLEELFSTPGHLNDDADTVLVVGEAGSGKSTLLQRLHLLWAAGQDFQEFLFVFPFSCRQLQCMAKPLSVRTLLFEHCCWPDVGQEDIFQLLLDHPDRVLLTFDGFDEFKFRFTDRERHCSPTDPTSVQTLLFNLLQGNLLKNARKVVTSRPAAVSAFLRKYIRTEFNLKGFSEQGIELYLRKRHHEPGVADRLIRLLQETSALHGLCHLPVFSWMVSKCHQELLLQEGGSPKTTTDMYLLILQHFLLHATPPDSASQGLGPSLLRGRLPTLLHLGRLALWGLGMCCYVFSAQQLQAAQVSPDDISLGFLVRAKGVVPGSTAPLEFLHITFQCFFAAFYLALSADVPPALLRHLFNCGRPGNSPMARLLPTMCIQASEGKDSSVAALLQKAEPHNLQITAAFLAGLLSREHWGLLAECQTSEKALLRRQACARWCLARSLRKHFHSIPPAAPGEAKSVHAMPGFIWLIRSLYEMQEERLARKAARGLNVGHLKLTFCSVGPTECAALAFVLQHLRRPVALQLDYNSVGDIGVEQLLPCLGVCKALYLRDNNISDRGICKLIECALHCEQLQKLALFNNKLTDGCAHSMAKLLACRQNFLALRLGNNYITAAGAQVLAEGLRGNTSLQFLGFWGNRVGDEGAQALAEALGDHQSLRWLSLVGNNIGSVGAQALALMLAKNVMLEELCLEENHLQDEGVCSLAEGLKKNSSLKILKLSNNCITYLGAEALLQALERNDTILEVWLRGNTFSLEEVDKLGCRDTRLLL
Chain of UDP-galactopyranose mutase (P9WIQ1 whole entry): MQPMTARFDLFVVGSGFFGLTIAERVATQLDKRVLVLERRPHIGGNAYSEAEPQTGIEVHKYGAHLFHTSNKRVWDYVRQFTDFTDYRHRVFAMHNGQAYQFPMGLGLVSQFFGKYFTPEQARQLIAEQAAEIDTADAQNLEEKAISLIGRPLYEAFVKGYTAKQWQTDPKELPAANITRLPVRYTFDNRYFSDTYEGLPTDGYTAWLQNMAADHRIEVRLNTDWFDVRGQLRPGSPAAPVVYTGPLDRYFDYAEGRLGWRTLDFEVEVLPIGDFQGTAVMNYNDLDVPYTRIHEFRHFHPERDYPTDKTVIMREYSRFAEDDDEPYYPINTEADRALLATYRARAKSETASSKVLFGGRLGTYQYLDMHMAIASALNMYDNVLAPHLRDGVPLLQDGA
Chain of Intestinal-type alkaline phosphatase (Mus musculus, UniProt P24822) (P24822 whole entry): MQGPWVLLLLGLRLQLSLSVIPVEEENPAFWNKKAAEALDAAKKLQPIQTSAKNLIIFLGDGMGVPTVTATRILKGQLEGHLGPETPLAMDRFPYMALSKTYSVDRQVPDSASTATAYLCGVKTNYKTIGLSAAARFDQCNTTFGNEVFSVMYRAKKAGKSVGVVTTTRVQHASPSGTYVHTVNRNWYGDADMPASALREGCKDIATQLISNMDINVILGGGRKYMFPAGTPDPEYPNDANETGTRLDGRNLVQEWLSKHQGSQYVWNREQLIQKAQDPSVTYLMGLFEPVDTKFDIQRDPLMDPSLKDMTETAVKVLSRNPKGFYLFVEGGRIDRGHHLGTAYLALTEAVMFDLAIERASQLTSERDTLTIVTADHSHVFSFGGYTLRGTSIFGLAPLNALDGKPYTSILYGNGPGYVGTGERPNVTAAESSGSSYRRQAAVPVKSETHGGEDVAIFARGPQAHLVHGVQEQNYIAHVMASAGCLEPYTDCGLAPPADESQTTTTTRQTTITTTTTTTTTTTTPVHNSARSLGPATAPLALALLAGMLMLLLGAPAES
Chain of Tumor necrosis factor (P01375 whole entry): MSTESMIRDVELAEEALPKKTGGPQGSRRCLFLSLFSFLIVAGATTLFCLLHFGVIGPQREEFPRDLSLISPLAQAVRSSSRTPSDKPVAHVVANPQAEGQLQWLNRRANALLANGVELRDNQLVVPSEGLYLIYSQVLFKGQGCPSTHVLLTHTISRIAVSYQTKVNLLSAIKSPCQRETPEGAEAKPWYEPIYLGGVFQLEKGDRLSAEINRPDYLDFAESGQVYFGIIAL

Question: For `COCCCNC(=O)Cn1cc(/C=C2\C(=O)NC(=O)N(c3ccccc3F)C2=O)c2ccccc21`, which AC50 [1] is on record?
Answer: The AC50 was 43.7 µM (active).

Question: Which IC50 [2] does the source give for `CCCN(CCC)CC(O)Cn1cc(/C=C/C(=O)c2cccs2)c2ccccc21` (stereo unspecified) here?
Answer: The IC50 was 4.14 µM.

Question: And the IC50 [3]?
Answer: Its IC50 is 11.3 µM (active).

Question: What about the EC50 (Beta-galactosidase) of the same molecule?
Answer: Its EC50 is > 31.5 µM (inactive).

Question: And the IC50 [4]?
Answer: Its IC50 is > 32 µM (inactive).

Question: And the EC50 (Mu-type opioid receptor [5])?
Answer: The EC50 was > 32 µM (inactive).

Question: And the EC50 [6]?
Answer: Its EC50 is > 32 µM (inactive).

Question: With `Clc1ccc(CSc2nnc(-c3ccccn3)n2Cc2ccco2)cc1Cl` as the molecule, how does the EC50 [7] read?
Answer: Its EC50 is > 32 µM (inactive).

Question: And the EC50 (Mu-type opioid receptor [8])?
Answer: Its EC50 is > 32 µM (inactive).

Question: And the IC50 (Mu-type opioid receptor [9])?
Answer: Its IC50 is > 32 µM (inactive).

Question: What about the IC50 [10] of the same molecule?
Answer: The IC50 was > 32 µM (inactive).

Question: Which results are given for `O=C(/C=C/c1cccs1)Nc1sc2c(c1C(=O)O)CCCC2`?
Answer: IC50 (Tumor necrosis factor): > 20 µM (inactive); IC50 (HEK293 [11]): > 20 µM (inactive); IC50 (HEK293 [12]): > 20 µM (inactive); EC50 [13]: > 20 µM (inactive); IC50 (HEK293 [14]): > 20 µM (inactive); EC50 (HEK293 [15]): 8.28 µM (active); IC50 (HEK293 [16]): > 20 µM (inactive); IC50 (HEK293 [17]): > 20 µM (inactive); IC50 [18]: 6.42 µM (active)

Question: Which results are given for `CSCCC(NS(=O)(=O)c1ccccc1F)C(=O)NNC(=O)c1csc(N2CCOCC2)n1` (stereo unspecified)?
Answer: EC50 [19]: 8.88 µM (active); IC50 [20]: 70.1 µM (active); EC50 [21]: 10.6 µM (active); EC50 [22]: 26.4 µM (active)

Question: Which results are given for `CC(C)Cc1csc(NC(=O)c2ccc(F)cc2)c1C(=O)O`?
Answer: AC50 [23]: 52.3 µM (active); EC50 [24]: > 53 µM (inactive); IC50 [25]: 36.3 µM (active); IC50 [26]: 10.3 µM (active); IC50 [27]: > 20 µM (inactive); AC50 [28]: 25.9 µM (active); EC50 [29]: 9.87 µM (active)
